Assays:
CARM1/PRMT4 [1] = target: T1, CARM1/PRMT4 (Mus musculus, UniProt Q9WVG6); assay: CARM1 in vitro methylation assay, histone H3 as substrate; assay type: biochemical; details: 50 µM
T1 sequence (Q9WVG6 1-608): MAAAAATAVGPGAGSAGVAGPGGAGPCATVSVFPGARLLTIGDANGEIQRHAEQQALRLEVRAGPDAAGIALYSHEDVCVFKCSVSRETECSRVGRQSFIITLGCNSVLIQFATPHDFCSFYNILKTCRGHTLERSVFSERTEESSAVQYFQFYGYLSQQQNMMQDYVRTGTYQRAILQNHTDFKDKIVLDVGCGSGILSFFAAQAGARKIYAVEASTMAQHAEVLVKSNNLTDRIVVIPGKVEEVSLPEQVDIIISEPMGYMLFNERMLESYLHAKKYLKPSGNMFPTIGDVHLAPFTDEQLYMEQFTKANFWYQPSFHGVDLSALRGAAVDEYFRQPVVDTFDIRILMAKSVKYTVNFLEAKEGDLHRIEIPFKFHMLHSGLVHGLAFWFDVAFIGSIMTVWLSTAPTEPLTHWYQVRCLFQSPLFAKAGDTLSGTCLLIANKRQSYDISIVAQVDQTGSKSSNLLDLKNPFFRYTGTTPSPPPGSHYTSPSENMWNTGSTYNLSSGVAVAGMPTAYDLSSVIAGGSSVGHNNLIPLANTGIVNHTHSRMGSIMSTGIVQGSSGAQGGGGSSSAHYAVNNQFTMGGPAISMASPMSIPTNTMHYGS

CARM1/PRMT4 [2] = target: T1, CARM1/PRMT4; assay: CARM1 in vitro methylation assay, PABP1 as substrate; assay type: biochemical; details: 3, 6, 12, 25, 50 and 100 µM
calf thymus histone H3 = assay: SPR binding to immobilized histone H3; details: compounds injected at 50–10000 nM
PABP1(437–488) = PABP1(437–488) (Homo sapiens, UniProt P11940); assay: SPR binding to immobilized PABP1; details: compounds injected at 50–10000 nM
CARM1 = target: T2, CARM1 (Mus musculus, UniProt Q9WVG6); assay: SPR binding to immobilized full length GST-tagged CARM1; details: for Effect on affinity of substrate (H3 or PABP1) for CARM1/SAH complex: 4 µM compound, 200 µM SAH; for Interaction with immobilized CARM1 (in words): 50–10000 nM, in the presence and in absence of SAH
T2 sequence (Q9WVG6 1-608): T1 sequence (Q9WVG6 1-608)

[3] = target: human recombinant PRMT1 (hPRMT1) (Homo sapiens, UniProt Q99873); assay: PRMT1 in vitro inhibition assay, Npl3 as substrate; details: fixed doses of 10 µM and 50 µM
Chain of human recombinant PRMT1 (hPRMT1) (Q99873 whole entry): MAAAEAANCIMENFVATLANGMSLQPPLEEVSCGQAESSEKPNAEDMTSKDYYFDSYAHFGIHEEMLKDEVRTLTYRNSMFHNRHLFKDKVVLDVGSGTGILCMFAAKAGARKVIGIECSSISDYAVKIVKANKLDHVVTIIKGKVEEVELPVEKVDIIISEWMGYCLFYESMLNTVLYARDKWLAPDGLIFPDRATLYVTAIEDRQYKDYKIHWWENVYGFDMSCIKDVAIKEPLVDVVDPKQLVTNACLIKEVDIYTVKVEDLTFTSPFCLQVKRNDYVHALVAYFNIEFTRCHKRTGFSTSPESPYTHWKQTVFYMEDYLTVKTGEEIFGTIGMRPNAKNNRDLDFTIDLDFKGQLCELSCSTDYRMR

[4] = test system: CARM1 (fPABP1 methylation) in HEK293 cells; assay: Cellular methylation assay, Tet-inducible fPABP1 in HEK293 cells; assay type: cell-based, human; details: HEK293, Tet-induced fPABP1; 50 µM compound; 24 h; anti-methyl-PABP1 immunoblot
[5] = target: T3, full length GST-tagged CARM1 (UniProt Q9WVG6 1-608); assay: SPR
T3 sequence (looked up): T1 sequence (Q9WVG6 1-608)

Molecule: CCOC(=O)c1cc2cc(NC(=O)CNC(=O)Nc3ccc([N+](=O)[O-])cc3)ccc2[nH]1 [1k, ethyl 5-(2-(3-(4-nitrophenyl)ureido)acetamido)-1H-indole-2-carboxylate]
- Effect on CARM1-catalyzed H3 methylation (in words) (CARM1/PRMT4 [1]): marked activation
- Effect on CARM1 enzyme activity, dose dependence (CARM1/PRMT4 [2]): marked and dose-dependent increase
- Interaction with immobilized histone H3 (in words) (calf thymus histone H3): no interaction
- Interaction with immobilized PABP1(437–488) (in words) (PABP1(437–488)): no interaction
- Effect on affinity of substrate (H3 or PABP1) for CARM1/SAH complex (CARM1): affects the affinity
- Interaction with immobilized CARM1 (in words) (CARM1): no interaction
- Inhibition of PRMT1 [3]: scarcely active

Molecule: CCOC(=O)c1cc2cc(NC(=O)CNC(=O)Nc3ccc(C)cc3)ccc2[nH]1 [3c, ethyl 5-(2-(3-(p-tolyl)ureido)acetamido)-1H-indole-2-carboxylate]
- Interaction with immobilized histone H3 (in words) (calf thymus histone H3): no interaction
- Interaction with immobilized PABP1(437–488) (in words) (PABP1(437–488)): no interaction
- Effect on affinity of substrate (H3 or PABP1) for CARM1/SAH complex (CARM1): significantly affect the affinity
- Interaction with immobilized CARM1 (in words) (CARM1): no interaction
- Methylation of fPABP1 in cells [4]: strongly increase the methylation

Molecule: CCOC(=O)c1cc2cc(NC(=O)CNC(=O)Nc3ccc(C#N)cc3)ccc2[nH]1 [3g, ethyl 5-(2-(3-(4-cyanophenyl)ureido)acetamido)-1H-indole-2-carboxylate]
- Interaction with immobilized histone H3 (in words) (calf thymus histone H3): no interaction
- Interaction with immobilized PABP1(437–488) (in words) (PABP1(437–488)): no interaction
- Effect on affinity of substrate (H3 or PABP1) for CARM1/SAH complex (CARM1): affects the affinity
- Interaction with immobilized CARM1 (in words) (CARM1): no interaction
- Methylation of fPABP1 in cells [4]: strongly increase the methylation

Molecule: COC(=O)c1c[nH]c2ccc(NC(=O)CNC(=O)Nc3ccc(OC)cc3)cc12 [4e, methyl 5-(2-(3-(4-methoxyphenyl)ureido)acetamido)-1H-indole-3-carboxylate]
- Interaction with immobilized histone H3 (in words) (calf thymus histone H3): no interaction
- Interaction with immobilized PABP1(437–488) (in words) (PABP1(437–488)): no interaction
- Effect on affinity of substrate (H3 or PABP1) for CARM1/SAH complex (CARM1): significantly affect the affinity
- Interaction with immobilized CARM1 (in words) (CARM1): no interaction

Molecule: O=C(Nc1ccc2c(O)cc(S(=O)(=O)O)cc2c1)Nc1ccc2c(O)cc(S(=O)(=O)O)cc2c1 [AMI-1, reference compound]
- Interaction with immobilized PABP1(437–488) (in words) (PABP1(437–488)): barely perceptible

Molecule: O=c1oc2c(O)c(O)cc3c(=O)oc4c(O)c(O)cc1c4c23 [ellagic acid, reference compound]
- Interaction with immobilized PABP1(437–488) (in words) (PABP1(437–488)): barely perceptible

B1: PABP1(437–488) (domain or fragment, human, UniProt P11940 437-488, looked up)
chain: WTAQGARPHPFQNMPGAIRPAAPRPPFSTMRPASSQVPRVMSTQRVANTSTQ
- Kd [5]: 158 nM

From article PMC3508294 (Journal of medicinal chemistry, 2012)
